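Dose response: 5 concentrations. Exposure: 48 h. Format: 96-well plates. Endpoint: linear interpolation; highest concentration if not reached. Here, GI50 denotes the concentration required for 50% inhibition of growth.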 Active and inactive are the calls of the source. Rule as the data show it: active = GI50 up to about 1.1 µM and inactive = higher.
Tests used:
Experiment in all cases: DTP human tumour cell line panel, 48 h
HT-29 = test system: HT-29
UACC-62 = test system: UACC-62
A498 = test system: A498
SNB-75 = test system: SNB-75
HCT-15 = test system: HCT-15
CAKI-1 = test system: CAKI-1
HCC 2998 = test system: HCC 2998
SK-MEL-5 = test system: SK-MEL-5
EKVX = test system: EKVX
SF-295 = test system: SF-295
MDA-MB-231 = test system: MDA-MB-231
SF-539 = test system: SF-539
786-0 = test system: 786-0
NCI/ADR-RES = test system: NCI/ADR-RES
MDA-MB-435 = test system: MDA-MB-435
OVCAR-5 = test system: OVCAR-5
UACC-257 = test system: UACC-257
CCRF-CEM = test system: CCRF-CEM
RXF 393 = test system: RXF 393
Malme-3M = test system: Malme-3M
MOLT-4 = test system: MOLT-4
M14 = test system: M14
T47D = test system: T47D
U-251 = test system: U-251
MCF7 = test system: MCF7
HOP-92 = test system: HOP-92
RPMI-8226 = test system: RPMI-8226
HCT-116 = test system: HCT-116
PC-3 = test system: PC-3
K562 = test system: K562
NCI-H460 = test system: NCI-H460
SN12C = test system: SN12C
LOX IMVI = test system: LOX IMVI
A549 = test system: A549
OVCAR-4 = test system: OVCAR-4
SK-MEL-28 = test system: SK-MEL-28
IGROV-1 = test system: IGROV-1
SK-OV-3 = test system: SK-OV-3
SR = test system: SR
OVCAR-3 = test system: OVCAR-3
OVCAR-8 = test system: OVCAR-8
SK-MEL-2 = test system: SK-MEL-2
SF-268 = test system: SF-268
BT-549 = test system: BT-549
HOP-62 = test system: HOP-62
Hs-578T = test system: Hs-578T
SW-620 = test system: SW-620
KM12 = test system: KM12
NCI-H226 = test system: NCI-H226
MDA-N = test system: MDA-N
NCI-H522 = test system: NCI-H522
TK-10 = test system: TK-10

## COC(=O)C(/C(=N/NC(N)=O)C(=O)Nc1ccc(C)cc1)c1nc2ccc([N+](=O)[O-])cc2nc1O (configuration not stated)
HT-29
  GI50: > 100 µM (inactive)
UACC-62
  GI50: > 100 µM (inactive)
A498
  GI50: > 100 µM (inactive)
SNB-75
  GI50: > 100 µM (inactive)
HCT-15
  GI50: 37.6 µM
CAKI-1
  GI50: > 100 µM (inactive)
HCC 2998
  GI50: 70.1 µM (inactive)
SK-MEL-5
  GI50: 57.9 µM (inactive)
EKVX
  GI50: 56.1 µM (inactive)
SF-295
  GI50: > 100 µM (inactive)
MDA-MB-231
  GI50: > 100 µM (inactive)
SF-539
  GI50: > 100 µM (inactive)
786-0
  GI50: > 100 µM (inactive)
NCI/ADR-RES
  GI50: > 100 µM (inactive)
MDA-MB-435
  GI50: > 100 µM (inactive)
OVCAR-5
  GI50: > 100 µM (inactive)
UACC-257
  GI50: > 10 µM (inactive)
CCRF-CEM
  GI50: > 10 µM (inactive)
RXF 393
  GI50: > 100 µM (inactive)
Malme-3M
  GI50: > 100 µM (inactive)
MOLT-4
  GI50: > 100 µM (inactive)
M14
  GI50: > 100 µM (inactive)
T47D
  GI50: > 100 µM (inactive)
U-251
  GI50: > 100 µM (inactive)
MCF7
  GI50: > 100 µM (inactive)
HOP-92
  GI50: > 100 µM (inactive)
RPMI-8226
  GI50: > 100 µM (inactive)
HCT-116
  GI50: > 100 µM (inactive)
PC-3
  GI50: > 100 µM (inactive)
K562
  GI50: > 100 µM (inactive)
NCI-H460
  GI50: 52.2 µM (inactive)
SN12C
  GI50: > 100 µM (inactive)
LOX IMVI
  GI50: 69.3 µM (inactive)
A549
  GI50: > 100 µM (inactive)
OVCAR-4
  GI50: 50.2 µM (inactive)
SK-MEL-28
  GI50: > 100 µM (inactive)
IGROV-1
  GI50: > 100 µM (inactive)
SK-OV-3
  GI50: > 100 µM (inactive)
SR
  GI50: > 100 µM (inactive)
OVCAR-3
  GI50: > 100 µM (inactive)
OVCAR-8
  GI50: > 100 µM (inactive)
SK-MEL-2
  GI50: > 100 µM (inactive)
SF-268
  GI50: > 100 µM (inactive)
BT-549
  GI50: > 100 µM (inactive)
HOP-62
  GI50: > 100 µM (inactive)
Hs-578T
  GI50: 67.3 µM (inactive)
SW-620
  GI50: > 100 µM (inactive)
KM12
  GI50: 74.3 µM (inactive)
NCI-H226
  GI50: > 100 µM (inactive)
MDA-N
  GI50: > 100 µM (inactive)
NCI-H522
  GI50: 27.2 µM (inactive)
TK-10
  GI50: > 100 µM (inactive)

Reference: ChEMBL document CHEMBL1201862, “PubChem BioAssay data set” (2004)
